LD50 and solubility in solvents data for three compounds are collected here from patent publication US7118692B2, “Substituted thienothiophene monomers and conducting polymers” (priority 2004, dated 2006).

Series [1] in a line: toxicity testing, oral LD50. As to conditions: in vivo.
Series [2] can be described thus: toxicity testing, dermal LD50. As to conditions: in vivo, topical or ocular.
A short description of series [3]: solubility of monomer in solvents. The series is classed as physicochemical. As to conditions: wide variety of solvents. From the text:
The tert-butyl substituted thienothiophenes and their conjugated oligomers and polymers show better properties compared to their hydrogen, decyl and phenyl analogs.

Structures are written as SMILES.

The LD50 is the dose expected to kill half of the subjects tested. Read a high LD50 as lower toxicity. For `c1cc2cscc2s1` [Thieno[3,4-b]thiophene], the LD50 in series [1] is 50 mg/kg; in series [2] it was 200 to 400 mg/kg.
`CC(C)(C)c1cc2cscc2s1` [2-tert-butyl-thieno[3,4-b]thiophene]: the LD50 in series [1] was > 500 mg/kg; in series [2], > 400 mg/kg. Besides, the solubility in solvents entry in series [3] was “readily soluble in a wide variety of solvents”.
Regarding `c1ccc(-c2cc3cscc3s2)cc1` [2-phenyl-thieno[3,4-b]thiophene], in series [3], the solubility in solvents entry is recorded as “only sparingly soluble”.
